From the NIST ThermoML archive (doi:10.1021/je034290l)

Experiments:
[1] = xn = mol fraction of the nth substance listed; settings: 101.32 kPa, Liquid
[2] = excess molar enthalpy (molar enthalpy of mixing); xn = mol fraction of the nth substance listed; settings: 101.32 kPa, Liquid, Calvet calorimetry

COC(C)=O [methyl ethanoate] + CC(C)(C)O
Settings	excess molar enthalpy [kcal/mol]	excess molar volume [m3/mol]
[1], 303.15 K, x1 = 0.0451	–	1.65e-07
[1], 303.15 K, x1 = 0.0901	–	3.35e-07
[1], 303.15 K, x1 = 0.1537	–	5.06e-07
[1], 303.15 K, x1 = 0.1973	–	6.07e-07
[1], 303.15 K, x1 = 0.2481	–	7.02e-07
[1], 303.15 K, x1 = 0.2631	–	7.32e-07
[1], 303.15 K, x1 = 0.3042	–	8.09e-07
[1], 303.15 K, x1 = 0.3448	–	8.49e-07
[1], 303.15 K, x1 = 0.3957	–	8.87e-07
[1], 303.15 K, x1 = 0.4411	–	9.04e-07
[1], 303.15 K, x1 = 0.4445	–	8.99e-07
[1], 303.15 K, x1 = 0.4964	–	8.92e-07
[1], 303.15 K, x1 = 0.5515	–	8.74e-07
[1], 303.15 K, x1 = 0.5677	–	8.68e-07
[1], 303.15 K, x1 = 0.5954	–	8.5e-07
[1], 303.15 K, x1 = 0.6467	–	7.94e-07
[1], 303.15 K, x1 = 0.6956	–	7.42e-07
[1], 303.15 K, x1 = 0.7432	–	6.59e-07
[1], 303.15 K, x1 = 0.8016	–	5.54e-07
[1], 303.15 K, x1 = 0.8477	–	4.63e-07
[1], 303.15 K, x1 = 0.9067	–	3.28e-07
[1], 303.15 K, x1 = 0.9465	–	2.17e-07
[1], 318.15 K, x1 = 0.102	–	3.93e-07
[1], 318.15 K, x1 = 0.165	–	5.61e-07
[1], 318.15 K, x1 = 0.2168	–	6.84e-07
[1], 318.15 K, x1 = 0.2804	–	7.71e-07
[1], 318.15 K, x1 = 0.349	–	8.76e-07
[1], 318.15 K, x1 = 0.4031	–	9.16e-07
[1], 318.15 K, x1 = 0.4596	–	9.41e-07
[1], 318.15 K, x1 = 0.5227	–	9.15e-07
[1], 318.15 K, x1 = 0.5784	–	8.91e-07
[1], 318.15 K, x1 = 0.6398	–	8.5e-07
[1], 318.15 K, x1 = 0.6786	–	8.06e-07
[1], 318.15 K, x1 = 0.7422	–	7.18e-07
[1], 318.15 K, x1 = 0.7969	–	5.7e-07
[1], 318.15 K, x1 = 0.8256	–	5.31e-07
[1], 318.15 K, x1 = 0.9077	–	3.01e-07
[1], 318.15 K, x1 = 0.9496	–	1.86e-07
[2], 299.15 K, x1 = 0.0671	0.126	–
[2], 299.15 K, x1 = 0.1369	0.238	–
[2], 299.15 K, x1 = 0.2113	0.341	–
[2], 299.15 K, x1 = 0.2812	0.417	–
[2], 299.15 K, x1 = 0.3492	0.472	–
[2], 299.15 K, x1 = 0.4106	0.504	–
[2], 299.15 K, x1 = 0.4675	0.519	–
[2], 299.15 K, x1 = 0.4928	0.522	–
[2], 299.15 K, x1 = 0.5304	0.524	–
[2], 299.15 K, x1 = 0.5753	0.517	–
[2], 299.15 K, x1 = 0.6226	0.5	–
[2], 299.15 K, x1 = 0.6741	0.47	–
[2], 299.15 K, x1 = 0.7293	0.427	–
[2], 299.15 K, x1 = 0.7866	0.368	–
[2], 299.15 K, x1 = 0.8439	0.292	–
[2], 299.15 K, x1 = 0.9019	0.201	–
[2], 299.15 K, x1 = 0.9551	0.107	–
[2], 318.15 K, x1 = 0.071	0.113	–
[2], 318.15 K, x1 = 0.1469	0.216	–
[2], 318.15 K, x1 = 0.2304	0.311	–
[2], 318.15 K, x1 = 0.3022	0.382	–
[2], 318.15 K, x1 = 0.3713	0.434	–
[2], 318.15 K, x1 = 0.4322	0.471	–
[2], 318.15 K, x1 = 0.4898	0.49	–
[2], 318.15 K, x1 = 0.5407	0.492	–
[2], 318.15 K, x1 = 0.5865	0.485	–
[2], 318.15 K, x1 = 0.6105	0.475	–
[2], 318.15 K, x1 = 0.6585	0.451	–
[2], 318.15 K, x1 = 0.711	0.414	–
[2], 318.15 K, x1 = 0.7628	0.367	–
[2], 318.15 K, x1 = 0.817	0.308	–
[2], 318.15 K, x1 = 0.8636	0.242	–
[2], 318.15 K, x1 = 0.9085	0.174	–
[2], 318.15 K, x1 = 0.9567	0.0889	–
